# Reference: patent US12180226B2, “Spirotricycle RIPK1 inhibitors and methods of uses thereof” (Merck Sharp & Dohme LLC, priority 2021, dated 2024)
# Molecular target: RIPK1 (recombinant GST-RIPK1 kinase domain, residues 1-327) (Homo sapiens (Human), UniProt Q13546)
# Assay: RIPK1-ADP-Glo Enzymatic Assay
# Format: biochemical
# Conditions: ADP-Glo; 25 nM GST-RIPK1, 300 μM ATP; assay lower limit ~25 nM; read-out: RIPK1 V0 Ec50
# Outline: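 GST-tagged kinase domain (residues 1-327, Sf21-expressed), 25 nM, pre-incubated 30 min with compound at ambient temperature, then reacted 150 min with 300 μM ATP and 3 μM dephosphorylated MBP in HEPES pH 7.3 buffer. ADP measured by ADP-Glo luminescence; EC50 from ten-point titration (top 100000 nM), four-parameter fit.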
# Chain of RIPK1 (recombinant GST-RIPK1 kinase domain, residues 1-327) (Q13546 1-327): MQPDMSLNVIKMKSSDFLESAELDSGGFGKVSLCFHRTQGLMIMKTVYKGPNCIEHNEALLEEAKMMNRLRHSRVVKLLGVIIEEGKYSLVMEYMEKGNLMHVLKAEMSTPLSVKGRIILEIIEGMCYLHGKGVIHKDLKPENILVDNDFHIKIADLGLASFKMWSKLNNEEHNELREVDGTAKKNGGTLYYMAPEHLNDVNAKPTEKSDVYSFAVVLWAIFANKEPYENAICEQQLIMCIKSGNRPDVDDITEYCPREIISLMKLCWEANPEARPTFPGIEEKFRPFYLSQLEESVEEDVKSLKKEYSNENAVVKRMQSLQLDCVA
row,SMILES,EC50
1,"CCn1nccc1C(=O)N1CCC2(CC1)O[C@@H]1CC[C@@H](c3cc(F)cc(F)c3)N1C2=O [Example 6.37, (5′S,7a′R)-5′-(3,5-difluorophenyl)-1-(1-ethyl-1H-pyrazole-5-carbonyl)tetrahydro-3′H-spiro[piperidine-4,2′-pyrrolo[2,1-b] [1,3]oxazol]-3′-one]",230 nM
2,"COc1cccc(F)c1C(=O)N1CCC2(CC1)O[C@@H]1CC[C@@H](c3cc(F)cc(F)c3)N1C2=O [Example 6.72, (5′S,7a′R)-5′-(3,5-difluorophenyl)-1-(2-fluoro-6-methoxy-benzene-1-carbonyl) tetrahydro-3′H-spiro [piperidine-4,2′-pyrrolo[2,1-b][1,3]-oxazol]-3′-one]",41.3 nM
3,"CCc1cnc(N2CCC3(CC2)O[C@@H]2CC[C@@H](c4cc(F)cc(F)c4)N2C3=O)nc1 [Example 4.60, (5′S,7a′R)-5′-(3,5-difluorophenyl)-1-(5-ethylpyrimidin-2-yl)tetrahydro-3′H-spiro[piperidine-4,2′-pyrrolo[2,1-b] [1,3]oxazol]-3′-one]",452 nM
4,"O=C1N2[C@@H](CC[C@H]2c2ccccc2)OC12CCN(c1nccc(C3CC3)n1)CC2 [Example 11.12, (5′S,7a′R)-1-(4-cyclopropylpyrimidin-2-yl)-5′-phenyltetrahydro-3′H-spiro[piperidine-4,2′-pyrrolo[2,1-b][1,3]oxazol]-3′-one]",97.7 nM
5,"O=C1N2[C@@H](CC[C@H]2c2cnccn2)OC12CCN(c1ccnc3c(F)cnn13)CC2 [Example 4.143, (5′S,7a′R)-1-(3-fluoropyrazolo[1,5-a]pyrimidin-7-yl)-5′-(pyrazin-2-yl)tetrahydro-3′H-spiro[piperidine-4,2′-pyrrolo[2,1-b] [1,3]oxazol]-3′-one]",< 25 nM
6,"Cc1cc(C)cc(C(=O)N2CCC3(CC2)O[C@@H]2CC[C@@H](c4ccccc4)N2C3=O)c1 [Example 6.150, (5′S,7a′R)-1-(3,5-dimethylbenzene-1-carbonyl)-5′-phenyl-tetrahydro-3′H-spiro [piperidine-4,2′-pyrrolo[2,1-b][1,3]oxazol]-3′-one]",118 nM
7,"O=C1N2[C@@H](CC[C@H]2c2ccccc2)OC12CCN(c1cc(-c3ccccc3)ncn1)CC2 [Example 4.32, (5′S,7a′R)-5′-phenyl-1-(6-phenylpyrimidin-4-yl)tetrahydro-3′H-spiro[piperidine-4,2′-pyrrolo[2,1-b] [1,3]oxazol]-3′-one]",< 25 nM
8,"O=C1N2[C@@H](CC[C@H]2c2cccc(F)c2)OC12CCN(c1cc(-c3ccccc3)ncn1)CC2 [Example 4.125, (5′S,7a′R)-5′-(3-fluorophenyl)-1-(6-phenylpyrimidin-4-yl)tetrahydro-3′H-spiro[piperidine-4,2′-pyrrolo[2,1-b] [1,3]oxazol]-3′-one]",< 25 nM
9,"N#Cc1ccnc(N2CCC3(CC2)O[C@@H]2CC[C@@H](c4cc(F)cc(F)c4)N2C3=O)c1 [Example 4.8, 2-[(5′S,7a′R)-5′-(3,5-difluorophenyl)-3′-oxotetrahydro-1H,3′H-spiro[piperidine-4,2′-pyrrolo[2,1-b] [1,3]oxazol]-1-yl]pyridine-4-carbonitrile]",< 25 nM
10,"Cn1ccc(C(=O)N2CCC3(CC2)O[C@@H]2CC[C@@H](c4cc(F)cc(F)c4)N2C3=O)c1 [Example 5.47, (5′S,7a′R)-5′-(3,5-difluoro-phenyl)-1-(1-methyl-1H-pyrrole-3-carbonyl)tetra-hydro-3′H-spiro[piperidine-4,2′-pyrrolo[2,1-b]oxazol]-3′-one]",26.9 nM
11,"C[C@@]12CC[C@@H](c3ccccc3)N1C(=O)C1(CCN(c3ccnc4c(F)cnn34)CC1)O2 [Example 4.81, (5′S,7a′R)-1-(3-fluoropyrazolo[1,5-a]pyrimidin-7-yl)-7a′-methyl-5′-phenyltetrahydro-3′H-spiro[piperidine-4,2′-pyrrolo[2,1-b] [1,3]oxazol]-3′-one]",51.2 nM
12,"N#Cc1cc(N2CCC3(CC2)O[C@@H]2CC[C@@H](c4cc(F)cc(F)c4)N2C3=O)ncn1 [Example 4.4, 6-[(5′S,7a′R)-5′-(3,5-difluorophenyl)-3′-oxotetrahydro-1H,3′H-spiro[piperidine-4,2′-pyrrolo[2,1-b] [1,3]oxazol]-1-yl]pyrimidine-4-carbonitrile]",< 25 nM
13,"O=C(c1ccccc1Cl)N1CCC2(CC1)O[C@@H]1CC[C@@H](c3cc(F)cc(F)c3)N1C2=O [Example 6.78, (5′S,7a′R)-1-(2-chloro-benzene-1-carbonyl)-5′-(3,5-difluorophen-yl)tetrahydro-3′H-spiro[piperidine-4,2′-pyrrolo[2,1-b][1,3]-oxazol]-3′-one]",36.9 nM
14,"Cc1cc(N2CCC3(CC2)O[C@@H]2CC[C@@H](c4ccccc4)N2C3=O)ncc1[N+](=O)[O-] [Example 4.207, (5′S,7a′R)-1-(4-methyl-5-nitropyridin-2-yl)-5′-phenyltetrahydro-3′H-spiro[piperidine-4,2′-pyrrolo[2,1-b] [1,3]oxazol]-3′-one]",< 25 nM
15,"O=C(c1cccc(F)c1)N1CCC2(CC1)O[C@@H]1CC[C@@H](c3ccccc3)N1C2=O [Example 6.154, (5′S,7a′R)-1-(3-fluoro-benzene-1-carbonyl)-5′-phenyltetrahydro-3′H-spiro[piperidine-4,2′-pyrrolo[2,1-b] [1,3]oxazol]-3′-one]",< 25 nM
16,"O=C(c1ncccc1F)N1CCC2(CC1)O[C@@H]1CC[C@@H](c3cc(F)cc(F)c3)N1C2=O [Example 6.54, (5′S,7a'R)-5′-(3,5-difluorophenyl)-1-(3-fluoropyridine-2-carbonyl)tetrahydro-3′H-spiro[piperidine-4,2′-pyrrolo[2,1-b] [1,3]oxazol]-3-one]",45.1 nM
17,"O=C(c1cc2ccccn2c1)N1CCC2(CC1)O[C@@H]1CC[C@@H](c3cc(F)cc(F)c3)N1C2=O [Example 5.73, (5′S,7a′R)-5′-(3,5-difluoro-phenyl)-1-(indolizine-2-carbonyl)tetrahydro-3′H-spiro[piperidine-4,2′-pyrrolo[2,1-b]oxazol]-3′-one]",< 25 nM
18,"COc1ccc(F)c(C(=O)N2CCC3(CC2)O[C@@H]2CC[C@@H](c4ccccc4)N2C3=O)c1 [Example 6.149, (5′S,7a′R)-1-(2-fluoro-5-methoxybenzene-1-carbonyl)-5′-phenyl-tetrahydro-3′H-spiro [piperidine-4,2′-pyrrolo[2,1-b][1,3]oxazol]-3′-one]",< 25 nM
19,"O=C(c1cnnn1-c1cccnc1)N1CCC2(CC1)O[C@@H]1CC[C@@H](c3cc(F)cc(F)c3)N1C2=O [Example 6.30, (5′S,7a′R)-5′-(3,5-difluorophenyl)-1-[1-(pyridin-3-yl)-1H-1,2,3-triazole-5-car-bonyl]tetrahydro-3′H-spiro[piperidine-4,2′-pyrrolo[2,1-b][1,3]oxazol]-3′-one]",208 nM
20,O=C(c1nc(Br)ccc1F)N1CCC2(CC1)O[C@@H]1CC[C@@H](c3cc(F)cc(F)c3)N1C2=O [Example 6.82],< 25 nM
21,"O=C(c1cccc(F)c1)N1CCC2(CC1)O[C@@H]1CC[C@@H](c3ccc(F)cc3)N1C2=O [Example 7.1, (5′S,7a′R)-1-(3-Fluorobenzoyl)-5′-(4-fluorophenyl)tetrahydro-3′H-spiro[piperidine-4,2′-pyrrolo[2,1-b]oxazol]-3′-one]",121 nM
22,"COc1nc(N2CCC3(CC2)O[C@@H]2CC[C@@H](c4cc(F)cc(F)c4)N2C3=O)ncc1C [Example 4.59, (5′S,7a′R)-5′-(3,5-difluorophenyl)-1-(4-methoxy-5-methylpyrimidin-2-yl)tetrahydro-3′H-spiro[piperidine-4,2′-pyrrolo[2,1-b] [1,3]oxazol]-3′-one]",149 nM
23,"Cc1ncc(C)c(N2CCC3(CC2)O[C@@H]2CC[C@@H](c4ccccc4)N2C3=O)n1 [Example 11.34, (5′S,7a′R)-1-(2,5-dimethylpyrimidin-4-yl)-5′-phenyltetrahydro-3′H-spiro[piperidine-4,2′-pyrrolo[2,1-b][1,3]oxazol]-3′-one]",601 nM
24,"O=C1N2[C@@H](CC[C@H]2c2ccccc2)OC12CCN(c1ccnc3ccnn13)CC2 [Example 4.28, (5′S,7a′R)-5′-phenyl-1-(pyrazolo[1,5-a]pyrimidin-7-yl)tetrahydro-3′H-spiro[piperidine-4,2′-pyrrolo[2,1-b] [1,3]oxazol]-3′-one]",< 25 nM
25,"O=C(c1cnc(C(F)(F)F)cn1)N1CCC2(CC1)O[C@@H]1CC[C@@H](c3cc(F)cc(F)c3)N1C2=O [Example 6.1, (5′S,7a′R)-5′-(3,5-Difluorophenyl)-1-(5-(trifluoromethyl)pyrazine-2-carbonyl)tetrahydro-3′H-spiro[piperidine-4,2′-pyrrolo[2,1-b]oxazol]-3′-one]",388 nM
26,O=C(c1ccc(-n2nccn2)cc1)N1CCC2(CC1)O[C@@H]1CC[C@@H](c3cc(F)cc(F)c3)N1C2=O [Example 6.21],881 nM
27,"O=C(c1cc(F)ccc1F)N1CCC2(O[C@@H]3CC[C@@H](c4ccccc4)N3C2=O)C(F)C1 (stereo partly drawn) [Example 6.111, (5′S,7a′R)-1-(2,5-difluorobenzene-1-carbonyl)-3-fluoro-5′-phenyltetrahydro-3′H-spiro[piperidine-4,2′-pyrrolo[2,1-b][1,3]-oxazol]-3′-one]",< 25 nM
28,"O=C1N2[C@@H](CC[C@H]2c2ccccc2)OC12CCN(c1ncc(C3CC3)cn1)CC2 [Example 11.13, (5′S,7a′R)-1-(5-cyclopropylpyrimidin-2-yl)-5′-phenyltetrahydro-3′H-spiro[piperidine-4,2′-pyrrolo[2,1-b][1,3]oxazol]-3′-one]",266 nM
29,"O=C(c1ccccc1)N1CCC2(CC1)O[C@@H]1CC[C@@H](c3ccccc3F)N1C2=O [Example 1.13, (5′S,7a′R)-1-benzoyl-5′-(2-fluorophenyl)tetrahydro-3′H-spiro[piperidine-4,2′-pyrrolo[2,1-b]oxazol]-3′-one]",< 25 nM
